# Laboratory results published in article PMC6891286, “Towards the Development of an In vivo Chemical Probe for Cyclin G Associated Kinase (GAK)” (Molecules, 2019).
# Columns and labels:
# Experiment in all cases: KINOMEscan
# Assay type in all cases: binding
# SRPK3 = molecular target: T1, SRPK3 (Homo sapiens, UniProt Q9UPE1); conditions: 35 at 1 µM; read-out: % inhibition
# T1 construct: purchased Eurofins DiscoverX (KINOMEscan)
# Procedure: (§1) KinomeScan Assay on 35 was performed as previously described at EuroFins DiscoverX (Fremont, CA, USA).
# [1] = molecular target: T2, RPS6KA4(Kin.Dom.2-C-terminal) (Homo sapiens, UniProt O75676); conditions: 35 at 1 µM; read-out: % inhibition
# T2 construct: RPS6KA4(Kin.Dom.2-C-terminal); purchased Eurofins DiscoverX (KINOMEscan)
# Procedure: as §1
# CDC2L2 = molecular target: T3, CDC2L2 (Homo sapiens, UniProt Q9UQ88); conditions: 35 at 1 µM; read-out: % inhibition
# T3 construct: purchased Eurofins DiscoverX (KINOMEscan)
# Procedure: as §1
# SIK = molecular target: T4, SIK (Homo sapiens, UniProt P57059); conditions: 35 at 1 µM; read-out: % inhibition
# T4 construct: purchased Eurofins DiscoverX (KINOMEscan)
# Procedure: as §1
# FES = molecular target: T5, FES (Homo sapiens, UniProt P07332); conditions: 35 at 1 µM; read-out: % inhibition
# T5 construct: purchased Eurofins DiscoverX (KINOMEscan)
# Procedure: as §1
# TSSK1B = molecular target: T6, TSSK1B (Homo sapiens, UniProt Q9BXA7); conditions: 35 at 1 µM; read-out: % inhibition
# T6 construct: purchased Eurofins DiscoverX (KINOMEscan)
# Procedure: as §1
# PAK3 = molecular target: T7, PAK3 (Homo sapiens, UniProt O75914); conditions: 35 at 1 µM; read-out: % inhibition
# T7 construct: purchased Eurofins DiscoverX (KINOMEscan)
# Procedure: as §1
# KIT-autoinhibited = molecular target: T8, KIT-autoinhibited (Homo sapiens, UniProt P10721); conditions: 35 at 1 µM; read-out: % inhibition
# T8 construct: purchased Eurofins DiscoverX (KINOMEscan)
# Procedure: as §1
# [2] = molecular target: T9, ABL1(F317I)-phosphorylated (Homo sapiens, UniProt P00519, F317I); conditions: 35 at 1 µM; read-out: % inhibition
# T9 construct: purchased Eurofins DiscoverX (KINOMEscan)
# Procedure: as §1
# EGFR(L858R,T790M) = molecular target: T10, EGFR(L858R,T790M) (Homo sapiens, UniProt P00533, L858R/T790M); conditions: 35 at 1 µM; read-out: % inhibition
# T10 construct: purchased Eurofins DiscoverX (KINOMEscan)
# Procedure: as §1
# BIKE = molecular target: T11, BIKE (Homo sapiens, UniProt Q9NSY1); conditions: 35 at 1 µM; read-out: % inhibition
# T11 construct: purchased Eurofins DiscoverX (KINOMEscan)
# Procedure: as §1
# PIK3CA(I800L) = molecular target: T12, PIK3CA(I800L) (Homo sapiens, UniProt P42336, I800L); conditions: 35 at 1 µM; read-out: % inhibition
# T12 construct: purchased Eurofins DiscoverX (KINOMEscan)
# Procedure: as §1
# [3] = molecular target: T13, JAK3(JH1domain-catalytic) (Homo sapiens, UniProt P52333); conditions: 35 at 1 µM; read-out: % inhibition
# T13 construct: JAK3(JH1domain-catalytic); purchased Eurofins DiscoverX (KINOMEscan)
# Procedure: as §1
# RIOK3 = molecular target: T14, RIOK3 (Homo sapiens, UniProt O14730); conditions: 35 at 1 µM; read-out: % inhibition
# T14 construct: purchased Eurofins DiscoverX (KINOMEscan)
# Procedure: as §1
# PKAC-beta = molecular target: T15, PKAC-beta (Homo sapiens, UniProt P22694); conditions: 35 at 1 µM; read-out: % inhibition
# T15 construct: purchased Eurofins DiscoverX (KINOMEscan)
# Procedure: as §1
# CSF1R = molecular target: T16, CSF1R (Homo sapiens, UniProt P07333); conditions: 35 at 1 µM; read-out: % inhibition
# T16 construct: purchased Eurofins DiscoverX (KINOMEscan)
# Procedure: as §1
# PKAC-alpha = molecular target: T17, PKAC-alpha (Homo sapiens, UniProt P17612); conditions: 35 at 1 µM; read-out: % inhibition
# T17 construct: purchased Eurofins DiscoverX (KINOMEscan)
# Procedure: as §1
# ASK1 = molecular target: T18, ASK1 (Homo sapiens, UniProt Q99683); conditions: 35 at 1 µM; read-out: % inhibition
# T18 construct: purchased Eurofins DiscoverX (KINOMEscan)
# Procedure: as §1
# CDK8 = molecular target: T19, CDK8 (Homo sapiens, UniProt P49336); conditions: 35 at 1 µM; read-out: % inhibition
# T19 construct: purchased Eurofins DiscoverX (KINOMEscan)
# Procedure: as §1
# [4] = molecular target: T20, RPS6KA5(Kin.Dom.2-C-terminal) (Homo sapiens, UniProt O75582); conditions: 35 at 1 µM; read-out: % inhibition
# T20 construct: RPS6KA5(Kin.Dom.2-C-terminal); purchased Eurofins DiscoverX (KINOMEscan)
# Procedure: as §1
# ICK = molecular target: T21, ICK (Homo sapiens, UniProt Q9UPZ9); conditions: 35 at 1 µM; read-out: % inhibition
# T21 construct: purchased Eurofins DiscoverX (KINOMEscan)
# Procedure: as §1
# NEK4 = molecular target: T22, NEK4 (Homo sapiens, UniProt P51957); conditions: 35 at 1 µM; read-out: % inhibition
# T22 construct: purchased Eurofins DiscoverX (KINOMEscan)
# Procedure: as §1
# PIKFYVE = molecular target: T23, PIKFYVE (Homo sapiens, UniProt Q9Y2I7); conditions: 35 at 1 µM; read-out: % inhibition
# T23 construct: purchased Eurofins DiscoverX (KINOMEscan)
# Procedure: as §1
# WEE2 = molecular target: T24, WEE2 (Homo sapiens, UniProt P0C1S8); conditions: 35 at 1 µM; read-out: % inhibition
# T24 construct: purchased Eurofins DiscoverX (KINOMEscan)
# Procedure: as §1
# ALK(L1196M) = molecular target: T25, ALK(L1196M) (Homo sapiens, UniProt Q9UM73, L1196M); conditions: 35 at 1 µM; read-out: % inhibition
# T25 construct: purchased Eurofins DiscoverX (KINOMEscan)
# Procedure: as §1
# PLK1 = molecular target: T26, PLK1 (Homo sapiens, UniProt P53350); conditions: 35 at 1 µM; read-out: % inhibition
# T26 construct: purchased Eurofins DiscoverX (KINOMEscan)
# Procedure: as §1
# PIK3CG = molecular target: T27, PIK3CG (Homo sapiens, UniProt P48736); conditions: 35 at 1 µM; read-out: % inhibition
# T27 construct: purchased Eurofins DiscoverX (KINOMEscan)
# Procedure: as §1
# [5] = molecular target: T28, ABL1(Q252H)-nonphosphorylated (Homo sapiens, UniProt P00519, Q252H); conditions: 35 at 1 µM; read-out: % inhibition
# T28 construct: purchased Eurofins DiscoverX (KINOMEscan)
# Procedure: as §1
# DMPK = molecular target: T29, DMPK (Homo sapiens, UniProt Q09013); conditions: 35 at 1 µM; read-out: % inhibition
# T29 construct: purchased Eurofins DiscoverX (KINOMEscan)
# Procedure: as §1
# PDGFRA = molecular target: T30, PDGFRA (Homo sapiens, UniProt P16234); conditions: 35 at 1 µM; read-out: % inhibition
# T30 construct: purchased Eurofins DiscoverX (KINOMEscan)
# Procedure: as §1
# PRKCI = molecular target: T31, PRKCI (Homo sapiens, UniProt P41743); conditions: 35 at 1 µM; read-out: % inhibition
# T31 construct: purchased Eurofins DiscoverX (KINOMEscan)
# Procedure: as §1
# FRK = molecular target: T32, FRK (Homo sapiens, UniProt P42685); conditions: 35 at 1 µM; read-out: % inhibition
# T32 construct: purchased Eurofins DiscoverX (KINOMEscan)
# Procedure: as §1
# YSK1 = molecular target: T33, YSK1 (Homo sapiens, UniProt O00506); conditions: 35 at 1 µM; read-out: % inhibition
# T33 construct: purchased EuroFins DiscoverX (Fremont, CA, USA)
# Procedure: as §1
# NEK10 = molecular target: T34, NEK10 (Homo sapiens, UniProt Q6ZWH5); conditions: 35 at 1 µM; read-out: % inhibition
# T34 construct: purchased Eurofins DiscoverX (KINOMEscan)
# Procedure: as §1
# MTOR = molecular target: T35, MTOR (Homo sapiens, UniProt P42345); conditions: 35 at 1 µM; read-out: % inhibition
# T35 construct: purchased Eurofins DiscoverX (KINOMEscan)
# Procedure: as §1
# CDC2L1 = molecular target: T36, CDC2L1 (Homo sapiens, UniProt P21127); conditions: 35 at 1 µM; read-out: % inhibition
# T36 construct: purchased Eurofins DiscoverX (KINOMEscan)
# Procedure: as §1
# EGFR = molecular target: T37, EGFR (Homo sapiens, UniProt P00533); conditions: 35 at 1 µM; read-out: % inhibition
# T37 construct: purchased Eurofins DiscoverX (KINOMEscan)
# Procedure: as §1
# CDKL5 = molecular target: T38, CDKL5 (Homo sapiens, UniProt O76039); conditions: 35 at 1 µM; read-out: % inhibition
# T38 construct: purchased Eurofins DiscoverX (KINOMEscan)
# Procedure: as §1
# HIPK1 = molecular target: T39, HIPK1 (Homo sapiens, UniProt Q86Z02); conditions: 35 at 1 µM; read-out: % inhibition
# T39 construct: purchased Eurofins DiscoverX (KINOMEscan)
# Procedure: as §1
# ACVR2A = molecular target: T40, ACVR2A (Homo sapiens, UniProt P27037); conditions: 35 at 1 µM; read-out: % inhibition
# T40 construct: purchased Eurofins DiscoverX (KINOMEscan)
# Procedure: as §1
# RIPK2 = molecular target: T41, RIPK2 (Homo sapiens, UniProt O43353)
# T41 construct: purchased Eurofins DiscoverX (KINOMEscan)
# Procedure: as §1
# T41 sequence (O43353 whole entry): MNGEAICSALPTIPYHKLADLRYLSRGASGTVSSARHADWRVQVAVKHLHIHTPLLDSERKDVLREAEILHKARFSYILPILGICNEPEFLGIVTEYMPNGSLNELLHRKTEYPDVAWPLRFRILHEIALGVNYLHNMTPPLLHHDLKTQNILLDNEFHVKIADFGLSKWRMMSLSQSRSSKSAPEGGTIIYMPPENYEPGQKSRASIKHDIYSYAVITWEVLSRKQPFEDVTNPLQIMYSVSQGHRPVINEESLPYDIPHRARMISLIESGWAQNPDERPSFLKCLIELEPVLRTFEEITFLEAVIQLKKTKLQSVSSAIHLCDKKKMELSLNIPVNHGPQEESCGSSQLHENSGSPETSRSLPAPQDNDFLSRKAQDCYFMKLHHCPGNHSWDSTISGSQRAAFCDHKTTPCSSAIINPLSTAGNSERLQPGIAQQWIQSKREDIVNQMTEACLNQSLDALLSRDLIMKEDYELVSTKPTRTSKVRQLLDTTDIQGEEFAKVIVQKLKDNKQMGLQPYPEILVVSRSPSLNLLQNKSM
# T31 sequence (P41743 whole entry): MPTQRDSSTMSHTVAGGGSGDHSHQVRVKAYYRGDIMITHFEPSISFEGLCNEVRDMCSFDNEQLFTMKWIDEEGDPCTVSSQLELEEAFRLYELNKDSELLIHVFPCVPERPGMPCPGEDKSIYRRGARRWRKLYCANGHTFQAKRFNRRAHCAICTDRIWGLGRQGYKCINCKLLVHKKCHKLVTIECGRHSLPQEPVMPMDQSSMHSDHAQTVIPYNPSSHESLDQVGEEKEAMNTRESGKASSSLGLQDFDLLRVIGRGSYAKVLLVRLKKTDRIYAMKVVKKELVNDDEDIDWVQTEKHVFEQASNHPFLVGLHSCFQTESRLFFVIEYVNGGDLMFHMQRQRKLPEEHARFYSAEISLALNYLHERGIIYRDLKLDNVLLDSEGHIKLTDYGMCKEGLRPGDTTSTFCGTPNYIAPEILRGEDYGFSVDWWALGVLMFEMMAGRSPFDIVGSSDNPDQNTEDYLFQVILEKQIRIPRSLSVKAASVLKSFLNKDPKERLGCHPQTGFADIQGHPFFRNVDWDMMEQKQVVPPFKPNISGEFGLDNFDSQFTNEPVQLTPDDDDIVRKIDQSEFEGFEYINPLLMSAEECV
# T7 sequence (O75914 whole entry): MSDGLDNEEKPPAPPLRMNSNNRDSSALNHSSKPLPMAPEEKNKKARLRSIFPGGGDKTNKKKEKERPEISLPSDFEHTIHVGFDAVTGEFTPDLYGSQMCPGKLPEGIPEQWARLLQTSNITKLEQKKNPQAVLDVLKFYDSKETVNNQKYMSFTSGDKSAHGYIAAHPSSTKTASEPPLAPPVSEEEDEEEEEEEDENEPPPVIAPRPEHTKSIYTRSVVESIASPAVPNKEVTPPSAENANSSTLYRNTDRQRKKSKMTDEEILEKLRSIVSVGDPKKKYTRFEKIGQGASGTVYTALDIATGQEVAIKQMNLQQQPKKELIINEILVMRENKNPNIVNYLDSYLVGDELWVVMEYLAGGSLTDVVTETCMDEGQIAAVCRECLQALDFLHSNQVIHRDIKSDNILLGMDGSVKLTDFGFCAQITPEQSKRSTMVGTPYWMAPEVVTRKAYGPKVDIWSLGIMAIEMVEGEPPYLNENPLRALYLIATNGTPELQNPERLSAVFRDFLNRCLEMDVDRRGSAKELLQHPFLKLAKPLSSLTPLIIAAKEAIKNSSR
# T38 sequence (O76039 whole entry): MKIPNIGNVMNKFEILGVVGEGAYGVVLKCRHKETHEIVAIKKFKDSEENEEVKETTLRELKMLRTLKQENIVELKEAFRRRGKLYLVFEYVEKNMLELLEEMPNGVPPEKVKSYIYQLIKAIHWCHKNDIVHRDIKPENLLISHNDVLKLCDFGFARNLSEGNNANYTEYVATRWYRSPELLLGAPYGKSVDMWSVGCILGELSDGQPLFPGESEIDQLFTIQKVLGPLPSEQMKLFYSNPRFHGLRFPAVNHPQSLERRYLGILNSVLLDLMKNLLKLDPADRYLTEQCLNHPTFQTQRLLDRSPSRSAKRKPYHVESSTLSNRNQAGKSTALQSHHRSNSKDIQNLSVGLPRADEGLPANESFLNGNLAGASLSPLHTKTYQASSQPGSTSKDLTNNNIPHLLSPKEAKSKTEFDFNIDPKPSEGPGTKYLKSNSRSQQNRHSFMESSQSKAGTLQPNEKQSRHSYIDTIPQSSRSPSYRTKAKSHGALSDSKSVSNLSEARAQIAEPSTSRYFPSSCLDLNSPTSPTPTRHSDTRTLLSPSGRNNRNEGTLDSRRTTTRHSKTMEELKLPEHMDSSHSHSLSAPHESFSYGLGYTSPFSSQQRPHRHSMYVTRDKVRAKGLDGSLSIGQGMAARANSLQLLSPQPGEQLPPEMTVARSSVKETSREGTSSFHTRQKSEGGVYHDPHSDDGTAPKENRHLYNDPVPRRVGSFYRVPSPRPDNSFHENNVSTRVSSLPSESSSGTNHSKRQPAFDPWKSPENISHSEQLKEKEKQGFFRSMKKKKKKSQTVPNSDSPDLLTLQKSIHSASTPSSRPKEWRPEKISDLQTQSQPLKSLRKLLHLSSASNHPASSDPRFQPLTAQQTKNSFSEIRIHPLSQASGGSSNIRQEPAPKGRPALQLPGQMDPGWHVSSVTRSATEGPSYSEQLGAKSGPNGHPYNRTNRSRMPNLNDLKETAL
# T18 sequence (Q99683 whole entry): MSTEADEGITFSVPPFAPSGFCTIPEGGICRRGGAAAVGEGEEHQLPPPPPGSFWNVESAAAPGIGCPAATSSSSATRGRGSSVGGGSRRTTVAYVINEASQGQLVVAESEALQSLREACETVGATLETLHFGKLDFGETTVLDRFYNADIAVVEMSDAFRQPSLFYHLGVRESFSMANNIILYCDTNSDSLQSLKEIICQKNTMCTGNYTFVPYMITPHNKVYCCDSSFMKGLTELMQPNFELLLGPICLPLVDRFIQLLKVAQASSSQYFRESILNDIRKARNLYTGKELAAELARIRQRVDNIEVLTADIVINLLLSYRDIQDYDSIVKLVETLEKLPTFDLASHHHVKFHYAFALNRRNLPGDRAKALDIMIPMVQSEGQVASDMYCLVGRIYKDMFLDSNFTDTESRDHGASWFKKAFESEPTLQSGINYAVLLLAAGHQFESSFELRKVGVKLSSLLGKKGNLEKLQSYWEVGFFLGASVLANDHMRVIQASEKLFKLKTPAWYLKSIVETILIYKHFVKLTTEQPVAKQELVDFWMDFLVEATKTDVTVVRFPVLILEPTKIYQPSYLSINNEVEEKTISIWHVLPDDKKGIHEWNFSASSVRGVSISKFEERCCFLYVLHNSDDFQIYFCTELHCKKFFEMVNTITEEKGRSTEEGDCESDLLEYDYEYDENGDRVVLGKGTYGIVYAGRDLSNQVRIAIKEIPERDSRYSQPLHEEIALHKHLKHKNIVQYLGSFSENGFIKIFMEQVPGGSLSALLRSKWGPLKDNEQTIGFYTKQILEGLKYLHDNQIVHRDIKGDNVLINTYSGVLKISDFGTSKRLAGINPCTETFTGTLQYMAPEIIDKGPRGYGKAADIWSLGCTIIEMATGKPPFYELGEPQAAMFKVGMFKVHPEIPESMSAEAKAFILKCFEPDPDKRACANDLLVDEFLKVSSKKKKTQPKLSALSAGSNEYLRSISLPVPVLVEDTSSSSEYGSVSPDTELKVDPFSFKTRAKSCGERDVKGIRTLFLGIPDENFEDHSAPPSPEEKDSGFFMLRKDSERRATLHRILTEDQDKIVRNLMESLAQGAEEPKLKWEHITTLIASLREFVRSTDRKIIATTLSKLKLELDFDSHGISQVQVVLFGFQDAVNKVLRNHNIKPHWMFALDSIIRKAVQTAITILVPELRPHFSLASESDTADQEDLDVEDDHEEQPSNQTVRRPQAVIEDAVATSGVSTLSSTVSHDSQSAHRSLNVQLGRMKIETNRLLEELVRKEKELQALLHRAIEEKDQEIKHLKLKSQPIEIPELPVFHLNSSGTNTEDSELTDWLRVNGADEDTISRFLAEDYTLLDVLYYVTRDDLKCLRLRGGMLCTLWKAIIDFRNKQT
# T1 sequence (Q9UPE1 whole entry): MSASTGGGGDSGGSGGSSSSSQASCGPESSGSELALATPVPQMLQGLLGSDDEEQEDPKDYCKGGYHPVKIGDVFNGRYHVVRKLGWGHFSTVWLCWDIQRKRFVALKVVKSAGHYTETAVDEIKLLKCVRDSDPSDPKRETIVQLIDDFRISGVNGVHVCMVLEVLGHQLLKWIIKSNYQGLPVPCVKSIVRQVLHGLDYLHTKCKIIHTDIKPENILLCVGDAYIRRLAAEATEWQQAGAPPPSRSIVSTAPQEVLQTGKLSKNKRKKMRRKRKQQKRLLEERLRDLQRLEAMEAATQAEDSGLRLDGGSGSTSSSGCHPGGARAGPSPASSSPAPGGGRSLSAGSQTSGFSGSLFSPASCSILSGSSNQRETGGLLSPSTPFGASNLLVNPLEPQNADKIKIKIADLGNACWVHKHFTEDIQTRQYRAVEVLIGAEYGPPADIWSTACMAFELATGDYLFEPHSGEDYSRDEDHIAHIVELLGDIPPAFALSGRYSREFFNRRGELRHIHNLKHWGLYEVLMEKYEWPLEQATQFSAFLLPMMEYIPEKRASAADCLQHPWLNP
# T20 sequence (O75582 426-687 limits assumed): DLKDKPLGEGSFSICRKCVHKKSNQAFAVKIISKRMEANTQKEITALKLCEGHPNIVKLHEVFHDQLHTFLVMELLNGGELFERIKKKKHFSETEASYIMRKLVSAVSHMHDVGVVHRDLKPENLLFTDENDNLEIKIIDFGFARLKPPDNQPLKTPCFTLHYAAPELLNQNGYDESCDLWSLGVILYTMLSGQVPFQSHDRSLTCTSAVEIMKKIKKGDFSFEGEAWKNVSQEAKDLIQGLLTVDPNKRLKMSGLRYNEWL
compound,measurement,setting,value
"Brc1ccc2nccc(Nc3ccc4cn[nH]c4c3)c2c1 [Compound 35, 6-Bromo-N-(1H-indazol-6-yl)quinolin-4-amine]",activity at 1 µM,SRPK3,100%
same,activity at 1 µM,[1],100%
same,activity at 1 µM,CDC2L2,70%
same,activity at 1 µM,SIK,100%
same,activity at 1 µM,FES,100%
same,activity at 1 µM,TSSK1B,100%
same,activity at 1 µM,PAK3,100%
same,activity at 1 µM,KIT-autoinhibited,100%
same,activity at 1 µM,[2],100%
same,activity at 1 µM,"EGFR(L858R,T790M)",98%
same,activity at 1 µM,BIKE,100%
same,activity at 1 µM,PIK3CA(I800L),76%
same,activity at 1 µM,[3],83%
same,activity at 1 µM,RIOK3,100%
same,activity at 1 µM,PKAC-beta,100%
same,activity at 1 µM,CSF1R,95%
same,activity at 1 µM,PKAC-alpha,98%
same,activity at 1 µM,ASK1,100%
same,activity at 1 µM,CDK8,83%
same,activity at 1 µM,[4],70%
same,activity at 1 µM,ICK,100%
same,activity at 1 µM,NEK4,100%
same,activity at 1 µM,PIKFYVE,100%
same,activity at 1 µM,WEE2,97%
same,activity at 1 µM,ALK(L1196M),86%
same,activity at 1 µM,PLK1,100%
same,activity at 1 µM,PIK3CG,100%
same,activity at 1 µM,[5],58%
same,activity at 1 µM,DMPK,100%
same,activity at 1 µM,PDGFRA,100%
same,activity at 1 µM,PRKCI,60%
same,activity at 1 µM,FRK,100%
same,activity at 1 µM,YSK1,100%
same,activity at 1 µM,NEK10,100%
same,activity at 1 µM,MTOR,100%
same,activity at 1 µM,CDC2L1,100%
same,activity at 1 µM,EGFR,100%
same,activity at 1 µM,CDKL5,100%
same,activity at 1 µM,HIPK1,53%
same,activity at 1 µM,ACVR2A,100%
same,activity at 1 µM,"RIPK2; 35 at 1 µM, read-out: % inhibition",29%
same,inhibition at 1 µM,"RIPK2; KinomeScan, screened at 1 μM, read-out: kinases inhibited at 1 μM: RIPK2",71%
